PubChem BioAssay (NCI)
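Compound exposure: 48 hours, 5 concentrations, 96-well plates. TGI: total growth inhibition.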

What was measured:
Experiment in all cases: growth of human tumour cells (NCI), 48 h
[1] = tested on: DU-145 prostate
[2] = tested on: SF-268 CNS
[3] = tested on: HS 578T breast
[4] = tested on: SF-295 CNS
[5] = tested on: UO-31 renal
[6] = tested on: M14 melanoma
[7] = tested on: SN12C renal
[8] = tested on: 786-0 renal
[9] = tested on: CAKI-1 renal
[10] = tested on: MDA-N
[11] = tested on: MDA-MB-231 breast
[12] = tested on: NCI-H23 lung
[13] = tested on: HT29 colon

Measured: TGI

c1ccc2c(c1)C(=Nc1ccc(N=C3c4ccccc4-c4ccccc43)cc1)c1ccccc1-2
> 100 µM: [1] | [2] | [3] | [4] | [5] | [6] | [7] | [8] | [9] | [10] | [11] | [12] | [13]
